Assay results from ChEMBL document CHEMBL4308864, “Targeting tyrosine kinase: Development of acridone - pyrrole - oxindole hybrids against human breast cancer” (2019).

Experiments:
Assay type in all cases: functional
[1] = system: CAKI-1; test: Growth inhibition of human Caki1 cells assessed as cell growth at 10^-5 M incubated for 48 hrs by sulforhodamine B assay relative to control; settings: CAKI-1, 48 h, read-out: Activity
[2] = system: UO-31; test: Growth inhibition of human UO31 cells assessed as cell growth at 10^-5 M incubated for 48 hrs by sulforhodamine B assay relative to control; settings: UO-31, 48 h, read-out: Activity
[3] = system: MDA-MB-231; test: Growth inhibition of human MDA-MB-231 cells assessed as cell growth at 10^-5 M incubated for 48 hrs by sulforhodamine B assay relative to control; settings: MDA-MB-231, 48 h, read-out: Activity
[4] = system: LOX IMVI; test: Growth inhibition of human LOXIMVI cells assessed as cell growth at 10^-5 M incubated for 48 hrs by sulforhodamine B assay relative to control; settings: read-out: Activity
[5] = system: HCT-15; test: Growth inhibition of human HCT15 cells assessed as cell growth at 10^-5 M incubated for 48 hrs by sulforhodamine B assay relative to control; settings: HCT-15, 48 h, read-out: Activity
[6] = system: MCF7; test: Growth inhibition of human MCF7 cells at 10^-5 M incubated for 48 hrs by sulforhodamine B assay relative to control; settings: MCF7, 48 h, read-out: GI
[7] = system: TK-10; test: Growth inhibition of human TK10 cells assessed as cell growth at 10^-5 M incubated for 48 hrs by sulforhodamine B assay relative to control; settings: TK-10, 48 h, read-out: Activity
[8] = system: UACC-257; test: Growth inhibition of human UACC257 cells assessed as cell growth at 10^-5 M incubated for 48 hrs by sulforhodamine B assay relative to control; settings: UACC-257, 48 h, read-out: Activity
[9] = system: HT-29; test: Growth inhibition of human HT-29 cells assessed as cell growth at 10^-5 M incubated for 48 hrs by sulforhodamine B assay relative to control; settings: HT-29, 48 h, read-out: Activity
[10] = system: KM12; test: Growth inhibition of human KM12 cells assessed as cell growth at 10^-5 M incubated for 48 hrs by sulforhodamine B assay relative to control; settings: KM12, 48 h, read-out: Activity
[11] = system: SK-OV-3; test: Growth inhibition of human SKOV3 cells assessed as cell growth at 10^-5 M incubated for 48 hrs by sulforhodamine B assay relative to control; settings: SK-OV-3, 48 h, read-out: Activity
[12] = system: HCT-116; test: Growth inhibition of human HCT116 cells assessed as cell growth at 10^-5 M incubated for 48 hrs by sulforhodamine B assay relative to control; settings: HCT-116, 48 h, read-out: Activity
[13] = system: HOP-92; test: Growth inhibition of human HOP92 cells assessed as cell growth at 10^-5 M incubated for 48 hrs by sulforhodamine B assay relative to control; settings: HOP-92, 48 h, read-out: Activity
[14] = system: K562; test: Growth inhibition of human K562 cells assessed as cell growth at 10^-5 M incubated for 48 hrs by sulforhodamine B assay relative to control; settings: K562, 48 h, read-out: Activity
[15] = system: COLO 205; test: Growth inhibition of human COLO205 cells assessed as cell growth at 10^-5 M incubated for 48 hrs by sulforhodamine B assay relative to control; settings: COLO 205, 48 h, read-out: Activity
[16] = system: NCI-H460; test: Growth inhibition of human NCI-H460 cells assessed as cell growth at 10^-5 M incubated for 48 hrs by sulforhodamine B assay relative to control; settings: NCI-H460, 48 h, read-out: Activity
[17] = system: NCI-H23; test: Growth inhibition of human NCI-H23 cells assessed as cell growth at 10^-5 M incubated for 48 hrs by sulforhodamine B assay relative to control; settings: NCI-H23, 48 h, read-out: Activity
[18] = system: SN12C; test: Growth inhibition of human SN12C cells assessed as cell growth at 10^-5 M incubated for 48 hrs by sulforhodamine B assay relative to control; settings: read-out: Activity
[19] = system: SF-295; test: Growth inhibition of human SF295 cells assessed as cell growth at 10^-5 M incubated for 48 hrs by sulforhodamine B assay relative to control; settings: SF-295, 48 h, read-out: Activity
[20] = system: MDA-MB-468; test: Growth inhibition of human MDA-MB-468 cells at 10^-5 M incubated for 48 hrs by sulforhodamine B assay relative to control; settings: MDA-MB-468, 48 h, read-out: GI
[21] = system: OVCAR-5; test: Growth inhibition of human OVCAR5 cells assessed as cell growth at 10^-5 M incubated for 48 hrs by sulforhodamine B assay relative to control; settings: OVCAR-5, 48 h, read-out: Activity
[22] = system: SNB-19; test: Growth inhibition of human SNB19 cells assessed as cell growth at 10^-5 M incubated for 48 hrs by sulforhodamine B assay relative to control; settings: SNB-19, 48 h, read-out: Activity
[23] = system: A549; test: Growth inhibition of human A549/ATCC cells assessed as cell growth at 10^-5 M incubated for 48 hrs by sulforhodamine B assay relative to control; settings: A549, 48 h, read-out: Activity
[24] = system: HCC 2998; test: Growth inhibition of human HCC2998 cells assessed as cell growth at 10^-5 M incubated for 48 hrs by sulforhodamine B assay relative to control; settings: HCC 2998, 48 h, read-out: Activity
[25] = system: OVCAR-4; test: Growth inhibition of human OVCAR4 cells assessed as cell growth at 10^-5 M incubated for 48 hrs by sulforhodamine B assay relative to control; settings: OVCAR-4, 48 h, read-out: Activity
[26] = system: NCI/ADR-RES; test: Growth inhibition of human NCI/ADR-RES cells assessed as cell growth at 10^-5 M incubated for 48 hrs by sulforhodamine B assay relative to control; settings: read-out: Activity
[27] = system: SNB-75; test: Growth inhibition of human SNB75 cells assessed as cell growth at 10^-5 M incubated for 48 hrs by sulforhodamine B assay relative to control; settings: SNB-75, 48 h, read-out: Activity
[28] = system: SW-620; test: Growth inhibition of human SW620 cells assessed as cell growth at 10^-5 M incubated for 48 hrs by sulforhodamine B assay relative to control; settings: SW-620, 48 h, read-out: Activity
[29] = system: M14; test: Growth inhibition of human M14 cells assessed as cell growth at 10^-5 M incubated for 48 hrs by sulforhodamine B assay relative to control; settings: M14, 48 h, read-out: Activity
[30] = system: ACHN; test: Growth inhibition of human ACHN cells assessed as cell growth at 10^-5 M incubated for 48 hrs by sulforhodamine B assay relative to control; settings: read-out: Activity
[31] = system: BT-549; test: Growth inhibition of human BT549 cells assessed as cell growth at 10^-5 M incubated for 48 hrs by sulforhodamine B assay relative to control; settings: BT-549, 48 h, read-out: Activity
[32] = system: SK-MEL-28; test: Growth inhibition of human SK-MEL-28 cells assessed as cell growth at 10^-5 M incubated for 48 hrs by sulforhodamine B assay relative to control; settings: SK-MEL-28, 48 h, read-out: Activity

| Compound | growth at 10 µM [1] | growth at 10 µM [2] | growth at 10 µM [3] | growth at 10 µM [4] | growth at 10 µM [5] | inhibition of growth at 10 µM [6] | growth at 10 µM [7] | growth at 10 µM [8] | growth at 10 µM [9] | growth at 10 µM [10] | growth at 10 µM [11] | growth at 10 µM [12] | growth at 10 µM [13] | growth at 10 µM [14] | growth at 10 µM [15] | growth at 10 µM [16] | growth at 10 µM [17] | growth at 10 µM [18] | growth at 10 µM [19] | inhibition of growth at 10 µM [20] | also measured |
| --- | --- | --- | --- | --- | --- | --- | --- | --- | --- | --- | --- | --- | --- | --- | --- | --- | --- | --- | --- | --- | --- |
| O=C1Nc2ccccc2/C1=C/c1cccn1CCCCCn1c2ccccc2c(=O)c2ccccc21 | 65.9% | 49.3% | 69.3% | 80.3% | 28.9% | 99% | 93.8% | 106% | 89.5% | 12.1% | 90.4% | 69.8% | 65.5% | 52.1% | 56.2% | 95.9% | 69.6% | 97.1% | 93.1% | 62% | growth at 10 µM [21]: 82.6%; growth at 10 µM [22]: 95.3%; growth at 10 µM [23]: 81.4%; growth at 10 µM [24]: 42.5%; growth at 10 µM [25]: 57.1%; growth at 10 µM [26]: 60.9%; growth at 10 µM [27]: 86.7%; growth at 10 µM [28]: 100%; growth at 10 µM [29]: 73.3%; growth at 10 µM [30]: 55.1%; growth at 10 µM [31]: 65.5%; growth at 10 µM [32]: 88.1% |
| O=C1Nc2ccccc2/C1=C/c1cccn1CCCCn1c2ccccc2c(=O)c2ccccc21 | 69.5% | 49.6% | 64.7% | 82.5% | 31.7% | 96% | 104% | 105% | 89.1% | 13% | 94.6% | 74.2% | 59.5% | 59.5% | 69.8% | 93.7% | 77.4% | 97.9% | 101% | 49% | growth at 10 µM [21]: 77.9%; growth at 10 µM [22]: 98.4%; growth at 10 µM [23]: 86.3%; growth at 10 µM [24]: 40.5%; growth at 10 µM [25]: 65.8%; growth at 10 µM [26]: 73.9%; growth at 10 µM [27]: 78%; growth at 10 µM [28]: 98.8%; growth at 10 µM [29]: 85.1%; growth at 10 µM [30]: 76.3%; growth at 10 µM [31]: 74.5%; growth at 10 µM [32]: 105% |
| O=C1/C(=C\c2cccn2CCCCn2c3ccccc3c(=O)c3ccccc32)c2ccccc2N1c1c(Cl)cccc1Cl | 87.4% | 80.8% | 98.4% | 98.1% | 83.5% | 68% | 108% | 101% | 110% | 90.8% | 105% | 98.4% | 71% | 91.5% | 70% | 104% | 101% | 101% | 98.8% | 28% | growth at 10 µM [21]: 104%; growth at 10 µM [22]: 98.2%; growth at 10 µM [23]: 93%; growth at 10 µM [24]: 46.7%; growth at 10 µM [25]: 78.3%; growth at 10 µM [26]: 101%; growth at 10 µM [27]: 91.9%; growth at 10 µM [28]: 105%; growth at 10 µM [29]: 96%; growth at 10 µM [30]: 99.5%; growth at 10 µM [31]: 105%; growth at 10 µM [32]: 111% |
| O=C1/C(=C\c2cccn2CCCCCCn2c3ccccc3c(=O)c3ccccc32)c2ccccc2N1c1c(Cl)cccc1Cl | 87.8% | 70.2% | 101% | 98.5% | 67.1% | 85% | 91% | 99.6% | 106% | 69.8% | 97.4% | 103% | 75.3% | 97.9% | 92.8% | 109% | 101% | 103% | 99.2% | 56% | growth at 10 µM [21]: 93.5%; growth at 10 µM [22]: 99.2%; growth at 10 µM [23]: 96%; growth at 10 µM [24]: 78.8%; growth at 10 µM [25]: 58.3%; growth at 10 µM [26]: 104%; growth at 10 µM [27]: 95.2%; growth at 10 µM [28]: 108%; growth at 10 µM [29]: 98%; growth at 10 µM [30]: 97.7%; growth at 10 µM [31]: 104%; growth at 10 µM [32]: 108% |
| O=C1/C(=C\c2cccn2CCCCCn2c3ccccc3c(=O)c3ccccc32)c2ccccc2N1c1c(Cl)cccc1Cl | 74.4% | 75.5% | 97.5% | 96.6% | 59.8% | 87% | 99.8% | 100% | 96.2% | 69.4% | 95.6% | 85.9% | 65.6% | 97.6% | 72.2% | 99.7% | 98% | 100% | 103% | 39% | growth at 10 µM [21]: 94.5%; growth at 10 µM [22]: 98.5%; growth at 10 µM [23]: 85.9%; growth at 10 µM [24]: 66.3%; growth at 10 µM [25]: 62.3%; growth at 10 µM [26]: 97.3%; growth at 10 µM [27]: 87.3%; growth at 10 µM [28]: 95.7%; growth at 10 µM [29]: 97.2%; growth at 10 µM [30]: 100%; growth at 10 µM [31]: 97.1%; growth at 10 µM [32]: 113% |
| O=C1Nc2ccccc2/C1=C/c1cccn1CCCCCCn1c2ccccc2c(=O)c2ccccc21 | 72.6% | 56.2% | 75.4% | 91.2% | 23% | 99% | 78.7% | 110% | 92.9% | 12.8% | 87.2% | 70.4% | 56.4% | 66.6% | 50.5% | 90.7% | 73.6% | 93.6% | 97.2% | 92% | growth at 10 µM [21]: 82.2%; growth at 10 µM [22]: 97.1%; growth at 10 µM [23]: 87.8%; growth at 10 µM [24]: 42.8%; growth at 10 µM [25]: 53.8%; growth at 10 µM [26]: 71.8%; growth at 10 µM [27]: 92.3%; growth at 10 µM [28]: 102%; growth at 10 µM [29]: 78.2%; growth at 10 µM [30]: 89.7%; growth at 10 µM [31]: 63.5%; growth at 10 µM [32]: 111% |
